Some test systems named below: Citrobacter sp.; Enterobacter cloacae; Klebsiella pneumoniae; Staphylococcus aureus; Streptococcus pneumoniae; Klebsiella pneumoniae M6; Escherichia coli K-12.
What all share (test): ≥ marks a high value that may be exact or a test limit, other limits are often not marked, values filed in µg/mL are converted to µM
The subject of experiment [1] is Acinetobacter baumannii ATCC 15308.
In experiment [2] the test system is Escherichia coli ATCC 25922.
Experiment [3] concerns Pseudomonas aeruginosa ATCC 15442.
For experiment [4], the system named is Staphylococcus aureus ATCC 25923.
The subject of experiment [5] is Acinetobacter baumannii ATCC 17978.
Experiment [6] has as its system Acinetobacter baumannii AYE.
Experiment [7] deals with Enterococcus faecalis NCTC 12201.
For experiment [8], the system named is Enterococcus faecalis NCTC 775.
The test system of experiment [9] is Pseudomonas aeruginosa NCTC 13437.
Experiment [10] has as its system Pseudomonas aeruginosa PAO1.
Experiment [11] relates to Staphylococcus aureus NCTC 13277.
Experiment [12] concerns Staphylococcus aureus NCTC 13616.
The subject of experiment [13] is Staphylococcus aureus NCTC 6571.
Experiment [14] has as its system Bacillus subtilis DSM 402.
Experiment [15] has as its system Escherichia coli DSM 30083.
Experiment [16] concerns Staphylococcus aureus ATCC 43300.
For experiment [17], the system named is Staphylococcus aureus DSM 20231.
Experiment [18] concerns Bacillus subtilis ATCC 6633.
The test system of experiment [19] is Micrococcus luteus NCIMB 13267.
Experiment [20] concerns Pseudomonas aeruginosa ATCC 27853.
For experiment [21], the system named is Staphylococcus aureus ATCC 6538.
The subject of experiment [22] is Bacillus subtilis CGMCC 1.3376.
For experiment [23], the system named is Escherichia coli CGMCC 1.8732.
In experiment [24] the test system is Klebsiella pneumoniae CGMCC 1.1736.
In experiment [25] the test system is Pseudomonas aeruginosa CGMCC 1.2421.
Experiment [26] has as its system Staphylococcus aureus CGMCC 1.8721.
Experiment [27] deals with Staphylococcus epidermidis CGMCC 1.4260.
Experiment [28] has as its system Escherichia coli CCARM 1229.
The test system of experiment [29] is Listeria monocytogenes KCTC 3710.
Experiment [30] has as its system Pseudomonas aeruginosa 3592.
In experiment [31] the test system is Pseudomonas aeruginosa 5018.
Experiment [32] concerns Salmonella typhimurium CCARM 8009.
Experiment [33] relates to Salmonella typhimurium CCARM 8013.
Experiment [34] concerns Salmonella typhimurium KCTC 1926.
The subject of experiment [35] is Staphylococcus aureus CCARM 3114.
Experiment [36] relates to Staphylococcus aureus CCARM 3709.

Experimental findings from DBAASP are described below.

For orientation: MIC means the least concentration at which growth counts as inhibited.

In brackets after ≈: the same amount, converted by molar mass. Several values for one entry are separate records, joined by “and”; a condition that tells them apart may be missing. Equal entries are not always repeated.

For the molecule `CC[C@H](C)[C@H](NC(=O)[C@H](CCSC)NC(=O)[C@H](C)NC(=O)[C@@H]1CCCN1C(=O)[C@@H](NC(=O)[C@@H](NC(=O)[C@H](CCCCN)NC(=O)[C@@H](NC(=O)[C@H](CC(C)C)NC(=O)CNC(=O)CNC(=O)[C@H](CC(C)C)NC(=O)[C@@H](N)Cc1ccccc1)[C@@H](C)CC)[C@@H](C)CC)C(C)C)C(=O)N[C@H]1CSSC[C@@H](C(=O)O)NC(=O)[C@H](CCCCN)NC(=O)[C@H](CCCCN)NC(=O)[C@H](CCCN=C(N)N)NC(=O)[C@H](C(C)C)NC(=O)[C@H](C)NC1=O` [FLGGLIKIVPAMICAVRKKC], the MIC in experiment [1] is at least 116 µM; in the experiment on Citrobacter sp., at least 116 µM; with Enterobacter cloacae, at least 116 µM; in experiment [2], 116 µM (≈ 250 µg/mL); in the experiment on Klebsiella pneumoniae, over 116 µM; in experiment [3] it was at least 116 µM. Further, the MIC is 57.8 µM (≈ 125 µg/mL) in experiment [4], 116 µM (≈ 250 µg/mL) against Staphylococcus aureus and at least 116 µM against Streptococcus pneumoniae.
With `CC[C@H](C)[C@H](NC(=O)[C@@H]1CCCN1C(=O)[C@H](CC(C)C)NC(=O)[C@@H](N)Cc1ccccc1)C(=O)N[C@H](C(=O)NCC(=O)N[C@@H](CC(C)C)C(=O)N[C@@H](CC(C)C)C(=O)N[C@@H](CCCCN)C(=O)N[C@@H](CO)C(=O)N[C@@H](CC(C)C)C(=O)N[C@@H](CC(C)C)C(=O)N[C@@H](CCCCN)C(N)=O)C(C)C` [FLPIVGLLKSLLK], the MIC in [5] was 5.55 µM and 11.1 µM; in experiment [6], 5.55 µM (≈ 7.99 µg/mL); in experiment [7] it was at least 88.8 µM; in experiment [8] it was 22.2 µM and ≥ 44.4 µM; in the experiment on Klebsiella pneumoniae M6, 22.2 µM and ≥ 44.4 µM; in [9], at least 88.8 µM. Moreover, the MIC in experiment [10] was 88.8 µM (≈ 128 µg/mL); in experiment [11], 11.1 µM (≈ 16 µg/mL); in experiment [12] it was 11.1 µM (≈ 16 µg/mL); in [13] it was 2.78 µM and 5.55 µM.
In the case of `NCCCC[C@H](N)C(=O)N[C@@H](CCCN=C(N)N)C(=O)N[C@@H](Cc1c[nH]c2ccccc12)C(=O)N[C@@H](CCCN=C(N)N)C(=O)N[C@@H](Cc1c[nH]c2ccccc12)C(=O)N[C@@H](CCCN=C(N)N)C(=O)N[C@@H](Cc1c[nH]c2ccccc12)C(=O)O` [KRWRWRW], the MIC in [14] was 2 µM (≈ 2.35 µg/mL); in [15] it was 18 µM (≈ 21.1 µg/mL); in experiment [16], 12.7 µM (≈ 14.9 µg/mL); in experiment [17], at least 37 µM.
For the molecule `CC[C@H](C)[C@H](NC(=O)[C@H](CCC(=O)O)NC(=O)[C@H](CCC(N)=O)NC(=O)[C@H](CCC(=O)O)NC(=O)[C@H](CC(C)C)NC(=O)[C@H](C)NC(=O)[C@H](C)NC(=O)[C@@H](NC(=O)[C@H](CCC(=O)O)NC(=O)[C@H](CCC(N)=O)NC(=O)[C@H](CCC(=O)O)NC(=O)[C@H](CC(C)C)NC(=O)[C@H](C)NC(=O)[C@H](C)NC(=O)[C@@H](NC(=O)[C@@H](N)CCC(N)=O)[C@@H](C)CC)[C@@H](C)CC)C(=O)N[C@@H](C)C(=O)N[C@@H](C)C(=O)N[C@@H](CC(C)C)C(=O)N[C@@H](CCC(N)=O)C(=O)O` [QIAALEQEIAALEQEIAALQ], the MIC in experiment [18] is at least 250 µM; with Escherichia coli K-12 it was at least 250 µM; in [19], at least 250 µM; in experiment [20], 250 µM (≈ 538 µg/mL); in experiment [21], 250 µM (≈ 538 µg/mL).
Consider `CC[C@H](C)[C@H](NC(=O)[C@H](CO)NC(=O)CNC(=O)[C@@H](NC(=O)[C@@H](N)CCCN=C(N)N)[C@@H](C)CC)C(=O)N[C@@H](CC(C)C)C(=O)NCC(=O)N[C@@H](CCCN=C(N)N)C(=O)N[C@@H](CC(C)C)C(=O)N[C@@H](C)C(=O)N[C@@H](CCCCN)C(=O)NCC(=O)N[C@@H](CC(C)C)C(=O)N1CCC[C@H]1C(=O)N[C@H](C(=O)N[C@@H](CC(C)C)C(=O)N[C@H](C(=O)N[C@@H](CO)C(=O)N[C@@H](Cc1c[nH]c2ccccc12)C(=O)N[C@H](C(=O)N[C@@H](CCCCN)C(=O)N[C@@H](CC(N)=O)C(=O)N[C@@H](CCCN=C(N)N)C(N)=O)[C@@H](C)CC)[C@@H](C)CC)[C@@H](C)O` [RIGSILGRLAKGLPTLISWIKNR], for which the MIC amounted to 6.25 µM (≈ 16 µg/mL) in [22]; 6.25 µM (≈ 16 µg/mL) in experiment [23]; 6.25 µM (≈ 16 µg/mL) in experiment [24]; 6.25 µM (≈ 16 µg/mL) in [25]; 12.5 µM (≈ 32 µg/mL) in experiment [26]; 3.13 µM (≈ 8.02 µg/mL) in experiment [27].
Turning to `CC[C@H](C)[C@H](NC(=O)[C@H](Cc1c[nH]c2ccccc12)NC(=O)[C@H](CCCN=C(N)N)NC(=O)[C@@H](NC(=O)[C@@H](N)CCCN=C(N)N)[C@@H](C)CC)C(=O)N[C@@H](CC(C)C)C(=O)N[C@@H](CCCN=C(N)N)C(=O)N[C@@H](Cc1ccc(O)cc1)C(=O)N[C@@H](Cc1c[nH]c2ccccc12)C(=O)N[C@@H](CCCN=C(N)N)C(=O)N[C@@H](Cc1c[nH]c2ccccc12)C(=O)N[C@@H](CO)C(=O)O` [RIRWILRYWRWS], the MIC in experiment [2] was 2 µM (≈ 3.58 µg/mL); in experiment [28], 1 µM and 2 µM; in experiment [29], 4 µM (≈ 7.16 µg/mL); in experiment [30] it was 8 µM (≈ 14.3 µg/mL); in experiment [31], 8 µM (≈ 14.3 µg/mL); in experiment [20], 4 µM (≈ 7.16 µg/mL). For the same molecule, the MIC in [32] is 4 µM (≈ 7.16 µg/mL); in experiment [33], 4 µM and 8 µM; in experiment [34] it was 2 µM (≈ 3.58 µg/mL); in experiment [4], 1 µM (≈ 1.79 µg/mL); in experiment [35] it was 8 µM and 16 µM; in [36], 2 µM and 4 µM.
